Assay results: PubChem BioAssay (NCI)
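48-hour exposure; five concentrations; linearly interpolated endpoints. TGI: total growth inhibition.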

The molecules below were run on CCRF-CEM leukemia (assay: inhibition of tumour cell growth, NCI panel, 48 h).
With OC(CNc1ccccn1)c1ccccc1 (stereo unspecified) the TGI was over 100 µM. In the case of O=C(CSc1nnc(-c2ccccn2)s1)N/N=C/c1ccccc1, the TGI is reported as over 100 µM. COc1ccc(Cn2c3c(cc(OC(C)=O)c2=O)Cc2ccccc2-3)cc1 was tested, and the TGI was over 50 µM. In the case of N#Cc1ccc(-c2nc3c(N)ncnc3o2)cc1, the TGI is reported as over 100 µM.

Each molecule was assayed on NCI-H226 lung (assay: inhibition of tumour cell growth, NCI panel, 48 h).
OC(CNc1ccccn1)c1ccccc1 (stereo unspecified) gave a TGI of over 100 µM. Work on O=C(CSc1nnc(-c2ccccn2)s1)N/N=C/c1ccccc1 yielded a TGI of over 100 µM. COc1ccc(Cn2c3c(cc(OC(C)=O)c2=O)Cc2ccccc2-3)cc1 showed a TGI of 41.1 µM. With N#Cc1ccc(-c2nc3c(N)ncnc3o2)cc1 the TGI was over 100 µM.

What follows are molecules tested on SW-620 colon (assay: inhibition of tumour cell growth, NCI panel, 48 h).
OC(CNc1ccccn1)c1ccccc1 (stereo unspecified) was tested, and the TGI was over 100 µM. O=C(CSc1nnc(-c2ccccn2)s1)N/N=C/c1ccccc1 was tested, and the TGI was over 100 µM. Molecule COc1ccc(Cn2c3c(cc(OC(C)=O)c2=O)Cc2ccccc2-3)cc1 has a TGI of 22.4 µM. In the case of N#Cc1ccc(-c2nc3c(N)ncnc3o2)cc1, the TGI is reported as over 100 µM.

Each molecule was assayed on MOLT-4 leukemia (assay: inhibition of tumour cell growth, NCI panel, 48 h).
OC(CNc1ccccn1)c1ccccc1 (stereo unspecified) was tested, and the TGI was over 100 µM. For O=C(CSc1nnc(-c2ccccn2)s1)N/N=C/c1ccccc1, the TGI was over 100 µM. With COc1ccc(Cn2c3c(cc(OC(C)=O)c2=O)Cc2ccccc2-3)cc1 the TGI was 28.8 µM. In the case of N#Cc1ccc(-c2nc3c(N)ncnc3o2)cc1, the TGI is reported as over 100 µM.

These molecules were tested on MDA-MB-435 (assay: inhibition of tumour cell growth, NCI panel, 48 h).
Molecule OC(CNc1ccccn1)c1ccccc1 (stereo unspecified) has a TGI of over 100 µM. Work on O=C(CSc1nnc(-c2ccccn2)s1)N/N=C/c1ccccc1 yielded a TGI of over 100 µM. COc1ccc(Cn2c3c(cc(OC(C)=O)c2=O)Cc2ccccc2-3)cc1 gave a TGI of over 50 µM. Molecule N#Cc1ccc(-c2nc3c(N)ncnc3o2)cc1 has a TGI of over 100 µM.

The molecules below were run on SNB-75 CNS (assay: inhibition of tumour cell growth, NCI panel, 48 h).
OC(CNc1ccccn1)c1ccccc1 (stereo unspecified) showed a TGI of over 100 µM. With O=C(CSc1nnc(-c2ccccn2)s1)N/N=C/c1ccccc1 the TGI was 17 µM. For COc1ccc(Cn2c3c(cc(OC(C)=O)c2=O)Cc2ccccc2-3)cc1, the TGI was 43.6 µM.

Each molecule was assayed on OVCAR-5 ovarian (assay: inhibition of tumour cell growth, NCI panel, 48 h).
With OC(CNc1ccccn1)c1ccccc1 (stereo unspecified) the TGI was over 100 µM. O=C(CSc1nnc(-c2ccccn2)s1)N/N=C/c1ccccc1 was tested, and the TGI was over 100 µM. Work on COc1ccc(Cn2c3c(cc(OC(C)=O)c2=O)Cc2ccccc2-3)cc1 yielded a TGI of over 50 µM. For N#Cc1ccc(-c2nc3c(N)ncnc3o2)cc1, the TGI was over 100 µM.

Each molecule was assayed on PC-3 prostate (assay: inhibition of tumour cell growth, NCI panel, 48 h).
OC(CNc1ccccn1)c1ccccc1 (stereo unspecified) was tested, and the TGI was over 100 µM. Work on O=C(CSc1nnc(-c2ccccn2)s1)N/N=C/c1ccccc1 yielded a TGI of over 100 µM. With COc1ccc(Cn2c3c(cc(OC(C)=O)c2=O)Cc2ccccc2-3)cc1 the TGI was 30.2 µM. N#Cc1ccc(-c2nc3c(N)ncnc3o2)cc1 showed a TGI of over 100 µM.

These molecules were tested on BT-549 breast (assay: inhibition of tumour cell growth, NCI panel, 48 h).
Work on OC(CNc1ccccn1)c1ccccc1 (stereo unspecified) yielded a TGI of over 100 µM. Molecule O=C(CSc1nnc(-c2ccccn2)s1)N/N=C/c1ccccc1 has a TGI of over 100 µM. With COc1ccc(Cn2c3c(cc(OC(C)=O)c2=O)Cc2ccccc2-3)cc1 the TGI was 35.1 µM. N#Cc1ccc(-c2nc3c(N)ncnc3o2)cc1 was tested, and the TGI was over 100 µM.

Each molecule was assayed on 786-0 renal (assay: inhibition of tumour cell growth, NCI panel, 48 h).
With OC(CNc1ccccn1)c1ccccc1 (stereo unspecified) the TGI was over 100 µM. O=C(CSc1nnc(-c2ccccn2)s1)N/N=C/c1ccccc1 gave a TGI of over 100 µM. COc1ccc(Cn2c3c(cc(OC(C)=O)c2=O)Cc2ccccc2-3)cc1 gave a TGI of 12.8 µM. N#Cc1ccc(-c2nc3c(N)ncnc3o2)cc1 was tested, and the TGI was over 100 µM.

Each molecule was assayed on SN12C renal (assay: inhibition of tumour cell growth, NCI panel, 48 h).
For OC(CNc1ccccn1)c1ccccc1 (stereo unspecified), the TGI was over 100 µM. O=C(CSc1nnc(-c2ccccn2)s1)N/N=C/c1ccccc1 was tested, and the TGI was over 100 µM. In the case of COc1ccc(Cn2c3c(cc(OC(C)=O)c2=O)Cc2ccccc2-3)cc1, the TGI is reported as 20.8 µM. Work on N#Cc1ccc(-c2nc3c(N)ncnc3o2)cc1 yielded a TGI of over 100 µM.

What follows are molecules tested on K-562 leukemia (assay: inhibition of tumour cell growth, NCI panel, 48 h).
OC(CNc1ccccn1)c1ccccc1 (stereo unspecified) showed a TGI of over 100 µM. Work on O=C(CSc1nnc(-c2ccccn2)s1)N/N=C/c1ccccc1 yielded a TGI of over 100 µM. For COc1ccc(Cn2c3c(cc(OC(C)=O)c2=O)Cc2ccccc2-3)cc1, the TGI was 34 µM. Work on N#Cc1ccc(-c2nc3c(N)ncnc3o2)cc1 yielded a TGI of over 100 µM.

Each molecule was assayed on SR leukemia (assay: inhibition of tumour cell growth, NCI panel, 48 h).
Work on O=C(CSc1nnc(-c2ccccn2)s1)N/N=C/c1ccccc1 yielded a TGI of over 100 µM. Molecule COc1ccc(Cn2c3c(cc(OC(C)=O)c2=O)Cc2ccccc2-3)cc1 has a TGI of 28 µM. N#Cc1ccc(-c2nc3c(N)ncnc3o2)cc1 was tested, and the TGI was over 100 µM.

What follows are molecules tested on MALME-3M melanoma (assay: inhibition of tumour cell growth, NCI panel, 48 h).
OC(CNc1ccccn1)c1ccccc1 (stereo unspecified) gave a TGI of over 100 µM. O=C(CSc1nnc(-c2ccccn2)s1)N/N=C/c1ccccc1 gave a TGI of over 100 µM. With COc1ccc(Cn2c3c(cc(OC(C)=O)c2=O)Cc2ccccc2-3)cc1 the TGI was 32.2 µM.

The molecules below were run on HCT-15 colon (assay: inhibition of tumour cell growth, NCI panel, 48 h).
Molecule OC(CNc1ccccn1)c1ccccc1 (stereo unspecified) has a TGI of over 100 µM. O=C(CSc1nnc(-c2ccccn2)s1)N/N=C/c1ccccc1 showed a TGI of over 100 µM. Work on COc1ccc(Cn2c3c(cc(OC(C)=O)c2=O)Cc2ccccc2-3)cc1 yielded a TGI of 39 µM. Work on N#Cc1ccc(-c2nc3c(N)ncnc3o2)cc1 yielded a TGI of over 100 µM.

Each molecule was assayed on MDA-MB-231 breast (assay: inhibition of tumour cell growth, NCI panel, 48 h).
For OC(CNc1ccccn1)c1ccccc1 (stereo unspecified), the TGI was over 100 µM. Molecule O=C(CSc1nnc(-c2ccccn2)s1)N/N=C/c1ccccc1 has a TGI of over 100 µM. In the case of COc1ccc(Cn2c3c(cc(OC(C)=O)c2=O)Cc2ccccc2-3)cc1, the TGI is reported as over 50 µM. In the case of N#Cc1ccc(-c2nc3c(N)ncnc3o2)cc1, the TGI is reported as over 100 µM.

Each molecule was assayed on HL-60(TB) leukemia (assay: inhibition of tumour cell growth, NCI panel, 48 h).
OC(CNc1ccccn1)c1ccccc1 (stereo unspecified) was tested, and the TGI was over 100 µM. Work on COc1ccc(Cn2c3c(cc(OC(C)=O)c2=O)Cc2ccccc2-3)cc1 yielded a TGI of 20.6 µM. Work on N#Cc1ccc(-c2nc3c(N)ncnc3o2)cc1 yielded a TGI of over 100 µM.

The molecules below were run on HT29 colon (assay: inhibition of tumour cell growth, NCI panel, 48 h).
In the case of OC(CNc1ccccn1)c1ccccc1 (stereo unspecified), the TGI is reported as over 100 µM. O=C(CSc1nnc(-c2ccccn2)s1)N/N=C/c1ccccc1 was tested, and the TGI was over 100 µM. COc1ccc(Cn2c3c(cc(OC(C)=O)c2=O)Cc2ccccc2-3)cc1 gave a TGI of 25.2 µM. N#Cc1ccc(-c2nc3c(N)ncnc3o2)cc1 showed a TGI of over 100 µM.

The molecules below were run on UO-31 renal (assay: inhibition of tumour cell growth, NCI panel, 48 h).
OC(CNc1ccccn1)c1ccccc1 (stereo unspecified) was tested, and the TGI was over 100 µM. For O=C(CSc1nnc(-c2ccccn2)s1)N/N=C/c1ccccc1, the TGI was over 100 µM. Work on COc1ccc(Cn2c3c(cc(OC(C)=O)c2=O)Cc2ccccc2-3)cc1 yielded a TGI of 15.9 µM. For N#Cc1ccc(-c2nc3c(N)ncnc3o2)cc1, the TGI was over 100 µM.

What follows are molecules tested on RXF 393 renal (assay: inhibition of tumour cell growth, NCI panel, 48 h).
Work on OC(CNc1ccccn1)c1ccccc1 (stereo unspecified) yielded a TGI of over 100 µM. In the case of COc1ccc(Cn2c3c(cc(OC(C)=O)c2=O)Cc2ccccc2-3)cc1, the TGI is reported as 42.6 µM. In the case of N#Cc1ccc(-c2nc3c(N)ncnc3o2)cc1, the TGI is reported as over 100 µM.

These molecules were tested on T-47D breast (assay: inhibition of tumour cell growth, NCI panel, 48 h).
For OC(CNc1ccccn1)c1ccccc1 (stereo unspecified), the TGI was over 100 µM. Work on O=C(CSc1nnc(-c2ccccn2)s1)N/N=C/c1ccccc1 yielded a TGI of over 100 µM. Molecule COc1ccc(Cn2c3c(cc(OC(C)=O)c2=O)Cc2ccccc2-3)cc1 has a TGI of over 50 µM. In the case of N#Cc1ccc(-c2nc3c(N)ncnc3o2)cc1, the TGI is reported as over 100 µM.

The molecules below were run on CAKI-1 renal (assay: inhibition of tumour cell growth, NCI panel, 48 h).
OC(CNc1ccccn1)c1ccccc1 (stereo unspecified) showed a TGI of over 100 µM. For O=C(CSc1nnc(-c2ccccn2)s1)N/N=C/c1ccccc1, the TGI was over 100 µM. With COc1ccc(Cn2c3c(cc(OC(C)=O)c2=O)Cc2ccccc2-3)cc1 the TGI was 35.7 µM. Molecule N#Cc1ccc(-c2nc3c(N)ncnc3o2)cc1 has a TGI of over 100 µM.

These molecules were tested on SF-295 CNS (assay: inhibition of tumour cell growth, NCI panel, 48 h).
OC(CNc1ccccn1)c1ccccc1 (stereo unspecified) showed a TGI of over 100 µM. Molecule O=C(CSc1nnc(-c2ccccn2)s1)N/N=C/c1ccccc1 has a TGI of over 100 µM. COc1ccc(Cn2c3c(cc(OC(C)=O)c2=O)Cc2ccccc2-3)cc1 was tested, and the TGI was over 50 µM. Molecule N#Cc1ccc(-c2nc3c(N)ncnc3o2)cc1 has a TGI of over 100 µM.

These molecules were tested on OVCAR-4 ovarian (assay: inhibition of tumour cell growth, NCI panel, 48 h).
In the case of OC(CNc1ccccn1)c1ccccc1 (stereo unspecified), the TGI is reported as over 100 µM. With O=C(CSc1nnc(-c2ccccn2)s1)N/N=C/c1ccccc1 the TGI was over 100 µM. COc1ccc(Cn2c3c(cc(OC(C)=O)c2=O)Cc2ccccc2-3)cc1 was tested, and the TGI was over 50 µM.

The molecules below were run on OVCAR-8 ovarian (assay: inhibition of tumour cell growth, NCI panel, 48 h).
OC(CNc1ccccn1)c1ccccc1 (stereo unspecified) gave a TGI of over 100 µM. Molecule O=C(CSc1nnc(-c2ccccn2)s1)N/N=C/c1ccccc1 has a TGI of over 100 µM. COc1ccc(Cn2c3c(cc(OC(C)=O)c2=O)Cc2ccccc2-3)cc1 showed a TGI of 20.3 µM. For N#Cc1ccc(-c2nc3c(N)ncnc3o2)cc1, the TGI was over 100 µM.

What follows are molecules tested on OVCAR-3 ovarian (assay: inhibition of tumour cell growth, NCI panel, 48 h).
Molecule OC(CNc1ccccn1)c1ccccc1 (stereo unspecified) has a TGI of over 100 µM. In the case of O=C(CSc1nnc(-c2ccccn2)s1)N/N=C/c1ccccc1, the TGI is reported as over 100 µM. In the case of COc1ccc(Cn2c3c(cc(OC(C)=O)c2=O)Cc2ccccc2-3)cc1, the TGI is reported as over 50 µM. Work on N#Cc1ccc(-c2nc3c(N)ncnc3o2)cc1 yielded a TGI of over 100 µM.

Each molecule was assayed on DU-145 prostate (assay: inhibition of tumour cell growth, NCI panel, 48 h).
OC(CNc1ccccn1)c1ccccc1 (stereo unspecified) showed a TGI of over 100 µM. O=C(CSc1nnc(-c2ccccn2)s1)N/N=C/c1ccccc1 was tested, and the TGI was over 100 µM. Molecule COc1ccc(Cn2c3c(cc(OC(C)=O)c2=O)Cc2ccccc2-3)cc1 has a TGI of over 50 µM. N#Cc1ccc(-c2nc3c(N)ncnc3o2)cc1 showed a TGI of over 100 µM.

These molecules were tested on NCI-H23 lung (assay: inhibition of tumour cell growth, NCI panel, 48 h).
With OC(CNc1ccccn1)c1ccccc1 (stereo unspecified) the TGI was over 100 µM. For O=C(CSc1nnc(-c2ccccn2)s1)N/N=C/c1ccccc1, the TGI was over 100 µM. COc1ccc(Cn2c3c(cc(OC(C)=O)c2=O)Cc2ccccc2-3)cc1 gave a TGI of 28.5 µM. N#Cc1ccc(-c2nc3c(N)ncnc3o2)cc1 gave a TGI of over 100 µM.

Each molecule was assayed on HCC-2998 colon (assay: inhibition of tumour cell growth, NCI panel, 48 h).
OC(CNc1ccccn1)c1ccccc1 (stereo unspecified) gave a TGI of over 100 µM. COc1ccc(Cn2c3c(cc(OC(C)=O)c2=O)Cc2ccccc2-3)cc1 was tested, and the TGI was 9.96 µM. For N#Cc1ccc(-c2nc3c(N)ncnc3o2)cc1, the TGI was over 100 µM.

What follows are molecules tested on SK-MEL-2 melanoma (assay: inhibition of tumour cell growth, NCI panel, 48 h).
OC(CNc1ccccn1)c1ccccc1 (stereo unspecified) was tested, and the TGI was over 100 µM. For O=C(CSc1nnc(-c2ccccn2)s1)N/N=C/c1ccccc1, the TGI was over 100 µM.
